The source made the active and inactive calls. The calls are words filed in the database; no cut-off is given here.
How the values were obtained:
[1] = molecular target: MAP kinase-activated protein kinase 2 (Homo sapiens, UniProt P49137)
[2] = Solubility at pH 7.4; type: physicochemical; conditions: buffer
THP-1 = assay: Inhibition of LPS-induced TNFalpha production in human THP1 cells
[3] = AUC (0 to infinity) in BALB/c mouse at 1.0 mg/kg, po; type: ADME, organism-based; parameters: time infinity, dose 1 mg/kg, route oral; conditions: plasma
[4] = Mean retention time in BALB/c mouse at 0.5 mg/kg, iv; type: ADME, organism-based; parameters: dose 0.5 mg/kg, route intravenous; conditions: in vivo
Mus musculus [5] = assay: Clearance in BALB/c mouse at 0.5 mg/kg, iv expressed as %Q; type: ADME, organism-based; parameters: dose 0.5 mg/kg, route intravenous; conditions: in vivo
[6] = AUC (0 to infinity) in BALB/c mouse at 0.5 mg/kg, iv; type: ADME, organism-based; parameters: time infinity, dose 0.5 mg/kg, route intravenous; conditions: plasma
[7] = Oral bioavailability in BALB/c mouse at 1.0 mg/kg; type: ADME, organism-based; conditions: in vivo
[8] = Cmax in BALB/c mouse at 1.0 mg/kg, po; type: ADME, organism-based; parameters: dose 1 mg/kg, route oral; conditions: in vivo
[9] = Drug level in mouse plasma at 60 mg/kg, po after 90 mins; type: ADME, organism-based; parameters: dose 60 mg/kg, route oral
Mus musculus [10] = assay: Inhibition of LPS-stimulated TNFalpha production in mouse at 60 mg/kg, po; type: functional, organism-based; parameters: dose 60 mg/kg
[11] = molecular target: T1, Mitogen-activated protein kinase 15 (Homo sapiens) (UniProt Q8TD08); assay: Inhibition of ERK8 at 10 uM
T1 sequence (whole entry): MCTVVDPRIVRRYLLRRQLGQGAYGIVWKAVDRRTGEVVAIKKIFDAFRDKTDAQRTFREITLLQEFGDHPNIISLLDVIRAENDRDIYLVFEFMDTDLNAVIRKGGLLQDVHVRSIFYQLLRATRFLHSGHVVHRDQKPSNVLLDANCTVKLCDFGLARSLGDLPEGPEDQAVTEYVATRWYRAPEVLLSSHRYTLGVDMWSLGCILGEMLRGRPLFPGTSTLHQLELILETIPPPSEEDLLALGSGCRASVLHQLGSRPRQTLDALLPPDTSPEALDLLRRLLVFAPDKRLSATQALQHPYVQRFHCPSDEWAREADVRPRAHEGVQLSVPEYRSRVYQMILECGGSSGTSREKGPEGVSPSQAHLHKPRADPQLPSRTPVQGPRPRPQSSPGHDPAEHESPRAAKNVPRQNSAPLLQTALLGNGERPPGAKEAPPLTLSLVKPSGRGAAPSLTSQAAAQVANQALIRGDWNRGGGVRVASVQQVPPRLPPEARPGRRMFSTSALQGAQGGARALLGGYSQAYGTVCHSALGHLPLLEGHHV

[12] = molecular target: T2, Lymphokine-activated killer T-cell-originated protein kinase (Homo sapiens) (UniProt Q96KB5); assay: Inhibition of PBK at 10 uM
T2 sequence (whole entry): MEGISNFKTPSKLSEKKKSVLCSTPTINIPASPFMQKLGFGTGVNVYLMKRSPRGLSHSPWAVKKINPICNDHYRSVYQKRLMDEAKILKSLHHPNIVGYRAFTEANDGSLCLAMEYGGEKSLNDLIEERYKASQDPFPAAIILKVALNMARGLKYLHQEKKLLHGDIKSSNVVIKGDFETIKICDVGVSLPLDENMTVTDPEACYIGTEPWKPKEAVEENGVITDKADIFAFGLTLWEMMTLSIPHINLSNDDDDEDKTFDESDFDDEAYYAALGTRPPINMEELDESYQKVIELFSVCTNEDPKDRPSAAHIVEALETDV

[13] = molecular target: T3, Serine/threonine-protein kinase 3 (Homo sapiens) (UniProt Q13188); assay: Inhibition of MST2 at 10 uM
T3 sequence (whole entry): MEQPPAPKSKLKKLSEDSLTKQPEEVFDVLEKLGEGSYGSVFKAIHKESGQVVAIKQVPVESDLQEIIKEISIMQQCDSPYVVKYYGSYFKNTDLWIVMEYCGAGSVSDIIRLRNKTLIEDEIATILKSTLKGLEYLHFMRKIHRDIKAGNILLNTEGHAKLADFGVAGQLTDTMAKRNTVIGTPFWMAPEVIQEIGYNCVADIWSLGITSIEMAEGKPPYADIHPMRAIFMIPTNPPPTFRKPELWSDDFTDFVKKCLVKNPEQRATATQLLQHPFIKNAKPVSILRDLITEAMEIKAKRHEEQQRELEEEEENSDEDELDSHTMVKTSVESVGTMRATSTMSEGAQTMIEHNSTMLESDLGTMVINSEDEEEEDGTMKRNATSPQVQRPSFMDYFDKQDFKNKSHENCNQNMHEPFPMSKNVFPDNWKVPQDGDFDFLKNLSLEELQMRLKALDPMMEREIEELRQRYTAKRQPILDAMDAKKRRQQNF

[14] = molecular target: 3-phosphoinositide-dependent protein kinase 1 (Homo sapiens) (UniProt O15530); assay: Inhibition of PDK1 at 10 uM
3-phosphoinositide-dependent protein kinase 1 (Homo sapiens), sequence (O15530 whole entry, looked up): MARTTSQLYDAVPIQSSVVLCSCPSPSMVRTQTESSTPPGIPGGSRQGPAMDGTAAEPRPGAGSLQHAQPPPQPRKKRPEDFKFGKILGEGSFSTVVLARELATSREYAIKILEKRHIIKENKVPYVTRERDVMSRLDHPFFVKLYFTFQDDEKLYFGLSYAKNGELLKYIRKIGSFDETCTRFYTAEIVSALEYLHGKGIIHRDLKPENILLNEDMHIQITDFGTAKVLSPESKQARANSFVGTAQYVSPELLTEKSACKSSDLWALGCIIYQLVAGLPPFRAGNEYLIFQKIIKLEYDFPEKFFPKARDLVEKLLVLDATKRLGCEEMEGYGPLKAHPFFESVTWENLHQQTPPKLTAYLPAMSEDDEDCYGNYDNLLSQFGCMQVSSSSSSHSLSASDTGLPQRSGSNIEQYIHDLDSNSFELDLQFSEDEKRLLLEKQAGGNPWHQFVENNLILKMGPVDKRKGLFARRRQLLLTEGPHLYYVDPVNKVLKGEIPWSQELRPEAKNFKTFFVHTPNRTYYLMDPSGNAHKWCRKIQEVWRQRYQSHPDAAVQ

[15] = molecular target: Glycogen synthase kinase-3 beta (Homo sapiens, UniProt P49841); assay: Inhibition of GSK3-beta
Glycogen synthase kinase-3 beta, sequence (P49841 whole entry): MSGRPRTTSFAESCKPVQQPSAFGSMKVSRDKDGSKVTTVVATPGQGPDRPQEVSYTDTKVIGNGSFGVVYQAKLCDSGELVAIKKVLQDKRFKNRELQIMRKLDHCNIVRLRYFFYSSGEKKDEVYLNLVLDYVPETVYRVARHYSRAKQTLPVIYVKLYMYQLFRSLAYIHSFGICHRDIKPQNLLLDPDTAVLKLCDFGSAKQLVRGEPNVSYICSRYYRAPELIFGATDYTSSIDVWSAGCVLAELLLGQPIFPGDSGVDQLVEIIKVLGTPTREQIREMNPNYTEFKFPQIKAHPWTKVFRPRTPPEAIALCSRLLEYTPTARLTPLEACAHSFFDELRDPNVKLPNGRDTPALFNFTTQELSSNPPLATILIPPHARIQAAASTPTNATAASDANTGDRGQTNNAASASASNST

[16] = molecular target: SRSF protein kinase 1 (Homo sapiens) (UniProt Q96SB4); assay: Inhibition of SRPK1 at 10 uM
SRSF protein kinase 1 (Homo sapiens), sequence (Q96SB4 whole entry): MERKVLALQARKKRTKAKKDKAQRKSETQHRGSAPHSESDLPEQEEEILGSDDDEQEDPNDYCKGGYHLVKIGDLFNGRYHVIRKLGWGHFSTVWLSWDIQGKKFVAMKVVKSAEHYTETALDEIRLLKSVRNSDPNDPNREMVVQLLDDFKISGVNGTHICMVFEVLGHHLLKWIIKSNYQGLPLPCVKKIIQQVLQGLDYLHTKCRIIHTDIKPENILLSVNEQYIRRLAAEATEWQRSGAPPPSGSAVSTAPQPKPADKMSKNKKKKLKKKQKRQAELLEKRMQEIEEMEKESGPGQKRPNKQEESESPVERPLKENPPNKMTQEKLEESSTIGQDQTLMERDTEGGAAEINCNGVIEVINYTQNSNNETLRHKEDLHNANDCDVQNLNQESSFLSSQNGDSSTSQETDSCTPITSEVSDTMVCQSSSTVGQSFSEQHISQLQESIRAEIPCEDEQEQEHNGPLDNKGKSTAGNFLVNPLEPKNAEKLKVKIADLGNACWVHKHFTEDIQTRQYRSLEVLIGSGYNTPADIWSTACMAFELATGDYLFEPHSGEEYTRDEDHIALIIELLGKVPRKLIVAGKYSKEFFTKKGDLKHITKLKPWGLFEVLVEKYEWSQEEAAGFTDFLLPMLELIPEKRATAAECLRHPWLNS

[17] = molecular target: Mitogen-activated protein kinase 1 (Homo sapiens, UniProt P28482); assay: Inhibition of Erk2
Mitogen-activated protein kinase 1, sequence (P28482 whole entry): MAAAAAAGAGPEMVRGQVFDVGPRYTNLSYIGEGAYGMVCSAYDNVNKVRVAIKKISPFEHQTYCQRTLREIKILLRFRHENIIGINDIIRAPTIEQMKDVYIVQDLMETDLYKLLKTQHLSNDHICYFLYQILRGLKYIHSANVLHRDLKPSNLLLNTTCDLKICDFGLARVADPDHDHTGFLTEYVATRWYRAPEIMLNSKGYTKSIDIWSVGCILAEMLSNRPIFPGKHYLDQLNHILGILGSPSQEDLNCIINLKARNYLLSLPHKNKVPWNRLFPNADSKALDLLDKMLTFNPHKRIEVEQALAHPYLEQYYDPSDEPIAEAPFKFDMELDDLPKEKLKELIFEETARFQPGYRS

[18] = molecular target: Mitogen-activated protein kinase kinase kinase 14 (Homo sapiens, UniProt Q99558); assay: Inhibition of NIK
Mitogen-activated protein kinase kinase kinase 14, sequence (Q99558 whole entry): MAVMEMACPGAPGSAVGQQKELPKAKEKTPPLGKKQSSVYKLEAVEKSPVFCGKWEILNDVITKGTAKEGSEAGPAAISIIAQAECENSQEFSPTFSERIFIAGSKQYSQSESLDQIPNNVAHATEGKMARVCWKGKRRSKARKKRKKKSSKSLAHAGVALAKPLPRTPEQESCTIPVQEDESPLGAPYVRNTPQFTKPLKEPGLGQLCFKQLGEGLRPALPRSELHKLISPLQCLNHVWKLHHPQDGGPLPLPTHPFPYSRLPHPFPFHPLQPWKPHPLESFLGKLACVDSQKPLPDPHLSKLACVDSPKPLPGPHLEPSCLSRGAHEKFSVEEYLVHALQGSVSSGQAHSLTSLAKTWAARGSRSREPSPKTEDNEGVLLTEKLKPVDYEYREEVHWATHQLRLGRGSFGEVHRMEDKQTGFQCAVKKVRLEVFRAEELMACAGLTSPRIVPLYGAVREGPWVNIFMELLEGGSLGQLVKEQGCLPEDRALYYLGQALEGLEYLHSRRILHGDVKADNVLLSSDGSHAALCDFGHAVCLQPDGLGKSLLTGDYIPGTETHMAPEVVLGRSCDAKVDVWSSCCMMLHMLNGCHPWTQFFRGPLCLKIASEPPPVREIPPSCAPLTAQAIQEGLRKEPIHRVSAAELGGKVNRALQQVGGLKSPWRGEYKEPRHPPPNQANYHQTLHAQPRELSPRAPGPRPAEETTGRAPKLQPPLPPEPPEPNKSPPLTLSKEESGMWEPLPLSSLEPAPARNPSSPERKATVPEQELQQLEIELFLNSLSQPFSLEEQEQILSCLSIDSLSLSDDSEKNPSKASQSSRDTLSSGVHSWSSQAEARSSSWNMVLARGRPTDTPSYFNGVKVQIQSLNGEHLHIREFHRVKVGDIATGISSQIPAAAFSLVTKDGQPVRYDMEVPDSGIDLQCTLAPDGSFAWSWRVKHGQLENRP

[19] = molecular target: Dual specificity tyrosine-phosphorylation-regulated kinase 1A (Homo sapiens) (UniProt Q13627); assay: Inhibition of DYRK1A at 10 uM
[20] = Inhibition of MAPKAP-K1
[21] = molecular target: Serine/threonine-protein kinase Chk2 (Homo sapiens) (UniProt O96017); assay: Inhibition of CHK2 at 10 uM
[22] = molecular target: Rho-associated protein kinase 2 (Homo sapiens) (UniProt O75116); assay: Inhibition of ROCK2 at 10 uM
Rho-associated protein kinase 2 (Homo sapiens), sequence (O75116 whole entry, looked up): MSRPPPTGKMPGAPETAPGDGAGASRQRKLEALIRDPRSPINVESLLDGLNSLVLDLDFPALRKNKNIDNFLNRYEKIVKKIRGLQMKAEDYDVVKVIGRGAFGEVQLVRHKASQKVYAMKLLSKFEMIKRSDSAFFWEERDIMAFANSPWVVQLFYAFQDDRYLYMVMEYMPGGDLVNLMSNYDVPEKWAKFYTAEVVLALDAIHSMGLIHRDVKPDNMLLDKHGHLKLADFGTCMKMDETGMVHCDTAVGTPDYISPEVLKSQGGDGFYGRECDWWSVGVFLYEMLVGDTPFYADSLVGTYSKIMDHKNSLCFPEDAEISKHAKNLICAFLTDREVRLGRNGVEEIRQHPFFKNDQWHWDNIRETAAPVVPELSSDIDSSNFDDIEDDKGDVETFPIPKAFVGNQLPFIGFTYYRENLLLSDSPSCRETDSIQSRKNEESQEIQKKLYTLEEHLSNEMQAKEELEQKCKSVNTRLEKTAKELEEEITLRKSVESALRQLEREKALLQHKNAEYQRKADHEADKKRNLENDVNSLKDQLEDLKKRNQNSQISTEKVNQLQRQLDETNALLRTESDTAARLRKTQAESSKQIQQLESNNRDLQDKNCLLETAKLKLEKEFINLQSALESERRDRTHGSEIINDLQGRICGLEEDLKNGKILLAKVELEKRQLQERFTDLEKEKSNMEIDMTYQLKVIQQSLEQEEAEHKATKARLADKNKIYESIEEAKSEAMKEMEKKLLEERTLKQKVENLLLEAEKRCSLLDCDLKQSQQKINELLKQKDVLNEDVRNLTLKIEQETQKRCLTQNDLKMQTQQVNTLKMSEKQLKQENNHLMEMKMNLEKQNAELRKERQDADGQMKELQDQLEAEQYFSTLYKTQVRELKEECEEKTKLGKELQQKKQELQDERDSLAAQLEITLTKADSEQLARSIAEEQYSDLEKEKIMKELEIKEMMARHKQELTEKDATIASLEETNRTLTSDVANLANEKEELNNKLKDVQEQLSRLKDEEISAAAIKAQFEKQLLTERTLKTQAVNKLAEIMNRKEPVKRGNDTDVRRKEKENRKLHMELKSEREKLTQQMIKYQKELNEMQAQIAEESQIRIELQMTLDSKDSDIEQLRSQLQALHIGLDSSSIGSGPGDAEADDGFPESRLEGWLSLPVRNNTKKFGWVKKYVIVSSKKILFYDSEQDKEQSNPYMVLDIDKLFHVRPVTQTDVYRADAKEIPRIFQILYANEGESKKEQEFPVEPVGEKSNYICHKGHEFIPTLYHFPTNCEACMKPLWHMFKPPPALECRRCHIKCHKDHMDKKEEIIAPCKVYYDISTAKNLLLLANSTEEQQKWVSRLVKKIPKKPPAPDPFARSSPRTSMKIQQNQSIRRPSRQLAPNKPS

[23] = molecular target: T4, MAP kinase-activated protein kinase 5 (Homo sapiens) (UniProt Q8IW41); assay: Inhibition of PRAK at 10 uM
T4 sequence (whole entry): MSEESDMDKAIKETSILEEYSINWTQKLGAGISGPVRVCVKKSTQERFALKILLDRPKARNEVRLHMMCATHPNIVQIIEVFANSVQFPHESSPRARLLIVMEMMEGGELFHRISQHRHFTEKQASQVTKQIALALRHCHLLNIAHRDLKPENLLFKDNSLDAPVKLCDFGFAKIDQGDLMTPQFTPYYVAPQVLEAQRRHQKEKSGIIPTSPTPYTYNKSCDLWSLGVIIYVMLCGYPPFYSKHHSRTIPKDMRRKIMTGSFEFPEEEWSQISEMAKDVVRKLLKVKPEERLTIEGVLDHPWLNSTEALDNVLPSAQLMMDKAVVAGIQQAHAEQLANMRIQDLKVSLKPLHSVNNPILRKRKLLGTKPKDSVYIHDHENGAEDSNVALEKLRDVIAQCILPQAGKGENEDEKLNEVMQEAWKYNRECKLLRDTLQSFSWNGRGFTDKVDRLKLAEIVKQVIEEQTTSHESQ

[24] = Inhibition of AMPK at 10 uM
[25] = Inhibition of MNK2alpha at 10 uM
[26] = molecular target: Dual specificity protein kinase CLK1 (Homo sapiens, UniProt P49759); assay: Inhibition of CLK1

MAP kinase-activated protein kinase 2, sequence (P49137 whole entry): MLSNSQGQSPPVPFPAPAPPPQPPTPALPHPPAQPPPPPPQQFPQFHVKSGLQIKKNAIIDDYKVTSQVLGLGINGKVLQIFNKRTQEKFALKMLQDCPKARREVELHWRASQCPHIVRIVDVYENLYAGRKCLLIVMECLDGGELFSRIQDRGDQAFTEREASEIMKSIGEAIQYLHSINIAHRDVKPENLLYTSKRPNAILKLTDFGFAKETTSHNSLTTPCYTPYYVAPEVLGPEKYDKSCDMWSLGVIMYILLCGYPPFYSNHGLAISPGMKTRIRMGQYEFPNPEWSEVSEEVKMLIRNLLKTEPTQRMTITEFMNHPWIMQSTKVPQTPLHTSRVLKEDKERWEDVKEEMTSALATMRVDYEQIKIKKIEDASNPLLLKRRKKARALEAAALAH

Compound CCN1CCC(NC(=O)c2csc(NC(=O)c3ccc4cc5n(c4c3)C(C)CNC5=O)n2)CC1 (stereo unspecified) has an IC50 [1] of 7 nM, a solubility [2] greater than 30 µg/mL and an IC50 (THP-1) of 8900 nM.

CC1(C)CNC(=O)c2cc3ccc(C(=O)Nc4nc(C(=O)NC5CCCCC5)cs4)cc3n21 gave an IC50 [1] of 19 nM and an IC50 (THP-1) of 1000 nM.

For CC1CNC(=O)c2cc3ccc(C(=O)Nc4nc(C(=O)NC5CCN(Cc6ccccc6)CC5)cs4)cc3n21 (stereo unspecified), the solubility [2] was greater than 30 µg/mL and the IC50 (THP-1) was 1600 nM.

For CC1CNC(=O)c2[nH]c3ccc(C(=O)Nc4nc(C(=O)NC5CCCCC5)cs4)cc3c21 (stereo unspecified), the AUC(0-inf) [3] was 88 ng·h/mL, the MRT [4] was 0.8 h and the “CL(%Q)” value (Mus musculus [5]) was 18%. For the same compound, the solubility [2] was less than 0.1 µg/mL, the AUC(0-inf) [6] was 525 ng·h/mL and the bioavailability [7] was 8%. For the same compound, the Cmax [8] was 60 nM.

With O=C(Nc1nc(C(=O)NC2CCN(Cc3ccccc3)CC2)cs1)c1ccc2cc3n(c2c1)C1(CCC1)CNC3=O the IC50 (THP-1) was 520 nM.

In the case of CC1CNC(=O)c2cc3ccc(C(=O)Nc4nc(C(=O)NCC(C)(C)C)cs4)cc3n21 (stereo unspecified), the IC50 [1] is reported as 46 nM and the IC50 (THP-1) is reported as 2700 nM.

With CC1CCC(NC(=O)c2csc(NC(=O)c3ccc4cc5n(c4c3)C(C)CNC5=O)n2)CC1 (stereo unspecified) the IC50 [1] was 45 nM and the IC50 (THP-1) was 1800 nM.

CC1CNC(=O)c2cc3ccc(C(=O)Nc4nc(C(=O)NC5CCN(C)CC5)cs4)cc3n21 (stereo unspecified) gave an IC50 (THP-1) greater than 5000 nM.

For CC1CNC(=O)c2cc3ccc(C(=O)Nc4nc(C(=O)NC5CCN(CC(C)(C)C)CC5)cs4)cc3n21 (stereo unspecified), the concentration at 1.5 h [9] was 690 nM, the Activity (Mus musculus [10]) was “inactive” and the solubility [2] was greater than 30 µg/mL. For the same compound, the IC50 (THP-1) was 735 nM.

Work on CN1CCC(NC(=O)c2csc(NC(=O)c3ccc4cc5n(c4c3)C(C)(C)CNC5=O)n2)CC1 yielded an IC50 (THP-1) of 2400 nM.

For CC(C)(C)CN1CCC(NC(=O)c2csc(NC(=O)c3ccc4cc5n(c4c3)C3(CCC3)CNC5=O)n2)CC1, the inhibition [11] was 82%, the AUC(0-inf) [3] was 446 ng·h/mL and the inhibition [12] was 75%. The inhibition [13] was 86%, the inhibition [14] was 92% and the IC50 [15] was 920 nM. For the same compound, the MRT [4] was 6.1 h, the inhibition [16] was 60% and the “CL(%Q)” value (Mus musculus [5]) was 30%. It also gave an IC50 [17] greater than 3000 nM, a solubility [2] greater than 96 µg/mL and an IC50 [18] of 480 nM. It also gave an inhibition [19] of 94%, an AUC(0-inf) [6] of 165 ng·h/mL and a bioavailability [7] greater than 100%. It also gave an IC50 [20] of 25 nM, an IC50 (THP-1) of 300 nM and an inhibition [21] of 84%. For the same compound, the inhibition [22] was 63%, the inhibition [23] was 98% and the Cmax [8] was 60 nM. For the same compound, the inhibition [24] was 98%, the inhibition [25] was 80% and the IC50 [26] was 93 nM.

Work on CC(C)CN1CCC(NC(=O)c2csc(NC(=O)c3ccc4cc5n(c4c3)C(C)CNC5=O)n2)CC1 (stereo unspecified) yielded a solubility [2] greater than 30 µg/mL and an IC50 (THP-1) of 1670 nM.

In the case of CC1CNC(=O)c2cc3ccc(C(=O)Nc4nc(C(=O)NC5CCCCC5)cs4)cc3n21 (stereo unspecified), the AUC(0-inf) [3] is reported as 115 ng·h/mL, the IC50 [1] is reported as 20 nM and the MRT [4] is reported as 2 h. The “CL(%Q)” value (Mus musculus [5]) was 18%, the solubility [2] was less than 0.1 µg/mL and the AUC(0-inf) [6] was 535 ng·h/mL. For the same compound, the bioavailability [7] was 11%, the IC50 (THP-1) was 1400 nM and the Cmax [8] was 80 nM.

Work on CC1CNC(=O)c2cc3ccc(C(=O)Nc4nc(C(=O)NC5CCOCC5)cs4)cc3n21 (stereo unspecified) yielded an IC50 [1] of 12 nM and an IC50 (THP-1) of 5800 nM.

CC1(C)CNC(=O)c2cc3ccc(C(=O)Nc4nc(C(=O)NC5CCN(Cc6ccccc6)CC5)cs4)cc3n21 showed an IC50 (THP-1) of 900 nM.

With CC1CNC(=O)c2[nH]c3ccc(C(=O)Nc4nc(C(=O)NC5CCN(C)CC5)cs4)cc3c21 (stereo unspecified) the IC50 (THP-1) was greater than 5000 nM.

Compound CN1CCC(NC(=O)c2csc(NC(=O)c3ccc4cc5n(c4c3)C3(CCC3)CNC5=O)n2)CC1 has an IC50 (THP-1) of 1700 nM.

CC(C)(C)CN1CCC(NC(=O)c2csc(NC(=O)c3ccc4cc5n(c4c3)C(C)(C)CNC5=O)n2)CC1 gave an IC50 (THP-1) of 430 nM.

Reference: ChEMBL document CHEMBL1143865, “Pyrazinoindolone inhibitors of MAPKAP-K2” (Bioorg Med Chem Lett, 2008)
